From patent publication US4298613A, “Agricultural heterocyclic sulfenamides” (E. I. Du Pont de Nemours and Company, priority 1980, dated 1981)

Experiments:
Venturia inaequalis [1] = assay: Control of apple scab in a residual wash-off test (Example 14); assay type: in vivo; conditions: 20 ppm, apple seedlings, 1/2 inch simulated rainfall, incubated 10-12 days
Protocol: (§1) Compounds of this invention are dissolved in acetone in an amount equal to 6% of the final volume and then suspended at a concentration of 20 ppm in purified water containing 25 ppm of the surfactant Alkanol® XC (sodium alkyl naphthalene sulfonate). This suspension is sprayed to the point of run-off on apple seedlings. The following day, 1/2 inch of simulated rainfall is applied to the foliage of the plants. When the foliage is dry, the plants are inoculated with a spore suspension of the fungus Venturia inaequalis and incubated in a growth room for 10-12 days. Disease ratings are then made. […] Phytotoxicity in the form of foliar burn was observed on some of the plants in association with disease control.

Phytophthora infestans = conditions: 5 ppm, tomato seedlings, incubated 4 days
[2] = system: Puccinia graminis var. tritici; assay type: in vivo; conditions: 20 ppm, wheat seedlings, 3500 foot candles xenon arc 16 hours, 24 hours humidity chamber then 7 days
Helminthosporium oryzae = assay: Control of rice Helminthosporium in a seed treatment test (Example 11); conditions: 1.3 g per kilogram of seed, 18 days, rating based on percent germination
Protocol: Rice seed infected with Helminthosporium oryzae are treated with compounds of this invention at a rate of 1.3 g per kilogram of seed. This is accomplished by soaking infected seed for 1 minute in a suspension of the indicated compound dissolved in a solution containing 4% glycerine, 4% water, 0.02% Tween®20*, and 92% acetone. Treated seeds are placed on moist blotters and enclosed in plastic bags for 18 days at which time disease ratings are made based on percent germination.
*Tween®20 is a trademark of ICI Americas, Inc. and consists of polyoxytheylene (20) sorbitan monolaurate.

Rhizoctonia solani = Rhizoctonia solani control on cotton, simulated in-the-row soil application (Example 12); assay type: in vivo; conditions: 15 kg/ha, 8 days
Description: Rhizoctonia solani-infested soil was placed in a 900 cc cup. Compounds of this invention were mixed at a rate of 15 kg/ha in a section 2" wide×2" deep×4" long to simulate an in-the-row application. Five cotton seeds were planted in the treated soil. After 8 days, the cotton plants were removed and rated for disease control.

Erysiphe cichoracearum [3] = assay: Control of cucumber powdery mildew in a residual wash-off test (Example 17); assay type: in vivo; conditions: 20 ppm, cucumber seedlings, 1/2 inch simulated rainfall, incubated 7 days
Protocol: (§2) Compounds of this invention are dissolved in acetone in an amount equal to 6% of the final volume and then suspended at a concentration of 20 ppm in purified water containing 25 ppm of the surfactant Alkanol® XC (sodium alkyl naphthalene sulfonate). This suspension is sprayed to the point of run-off on cucumber seedlings. The following day, 1/2 inch of simulated rainfall is applied to the foliage of the plants. When the foliage is dry, the plants are inoculated with a spore suspension of the fungus Erysiphe cichoracearum and incubated in a growth room for 7 days. Disease ratings are then made.

[4] = system: Puccinia graminis var. tritici; assay type: in vivo; conditions: 20 ppm, wheat seedlings, 1/2 inch simulated rainfall, 24 hours humidity chamber then 7 days
[5] = system: Puccinia graminis var. tritici; assay type: in vivo; conditions: 20 ppm, wheat seedlings, 24 hours humidity chamber at 20° C. then 7 days
Erysiphe cichoracearum [6] = assay: Control of cucumber powdery mildew in a preventive test (Example 16); assay type: in vivo; conditions: 20 ppm, cucumber seedlings, incubated 7 days
Protocol: as §2, with “naphthalane” for “naphthalene”, “day,” for “day, 1/2 inch of simulated rainfall is applied to the foliage of the plants. When the foliage is dry,”

Venturia inaequalis [7] = assay: Control of apple scab in a photostability test (Example 15); assay type: in vivo; conditions: 20 ppm, apple seedlings, 3500 foot candles xenon arc 16 hours, incubated 10-12 days
Protocol: Compounds of this invention are dissolved in acetone in an amount equal to 6% of the final volume and then suspended at a concentration of 20 ppm in purified water containing 25 ppm of the surfactant Alkanol® XC (sodium alkyl naphthalene sulfonate). This suspension is sprayed to the point of run-off on apple seedlings. When the foliage is dry, the plants are exposed to 3500 foot candles of light from a xenon arc source for a period of 16 hours. This light source approximates the spectrum of natural sunlight, and is used to assess photostability of the compounds of this invention on plant foliage. The following day, the plants are inoculated with a spore suspension of the fungus Venturia inaequalis and incubated in a growth room for 10-12 days. Disease ratings are then made. As shown in the following table, most of the compounds of this invention provided good disease control as the treated plants had fewer apple scab lesions in contrast to untreated plants which were covered with scab lesions. Phytotoxicity in the form of foliar burn was observed on some of the plants in association with disease control.

Erysiphe cichoracearum [8] = assay: Control of cucumber powdery mildew in a photostability test (Example 18); assay type: in vivo; conditions: 20 ppm, cucumber seedlings, 3500 foot candles xenon arc 16 hours, incubated 7 days
Protocol: as §2, with “run-off in” for “run-off on”, “seedlings.” for “seedlings. The following day, 1/2 inch of simulated rainfall is applied to the foliage of the plants.”, “dry, the plants are exposed to 3500 foot candles of light from a xenon arc source for a period of 16 hours. This light source approximates the spectrum of natural sunlight, and is used to assess photostability of the compounds of this invention on plant foliage. The following day,” for “dry,”

Venturia inaequalis [9] = assay: Control of apple scab in a preventive test (Example 13); assay type: in vivo; conditions: 20 ppm, apple seedlings, incubated 10-12 days
Protocol: as §1, with “day,” for “day, 1/2 inch of simulated rainfall is applied to the foliage of the plants. When the foliage is dry,”

two spotted mites = assay: Two-spotted mite mortality on red kidney bean plants (Example 9); assay type: in vivo; conditions: Tetranychus urticae, 48 h, read-out: % Mortality (2 days)
Protocol: Test units consisted of plant pots containing two red kidney bean plants in the two-leaf stage per pot. The plants were infested with two spotted mites and sprayed to run-off with dispersions of N-[2-chloro-5-(trifluoromethyl)phenyl]-N-[2,4-dinitro-6-(trifluoromethyl)phenyl]-3-nitro-2-pyridinesulfenamide at the indicated concentrations. Dispersions were made by dissolving weighed quantities of the active ingredients in 10 ml of acetone and then diluting to volume with water containing 1:3000 of a surfactant, DuPonol® (a tradename of E. I. du Pont de Nemours & Co. for sodium alcohol sulfonate). Mortality was evaluated two days after spraying.

house fly adults = assay: House fly adult mortality (Example 10); assay type: in vivo, Musca domestica (house fly); conditions: concentration .01 (unit not given), acetone dispersion, 1 day, 25°±2° C., 50% RH
Protocol: Twenty-five house fly adults are secured in screened stainless steel ring cages and treated with acetone dispersions of N-[2-chloro-5-(trifluoromethyl)-phenyl]-N-[2,4-dinitro-6-(trifluoromethyl)phenyl]-3-nitro-2-pyridinesulfenamide at the indicated concentrations. The stock dispersion is prepared by dissolving appropriately weighed quantities of active ingredient in predetermined quantities of acetone. Further diluting with acetone yields the desired concentrations. After treating, the units are kept in a room maintained at 25°±2° C., 50% RH. Results are recorded at the end of 1 day.

SMILES	% Control of Apple Scab in a Residual Wash-Off Test (Venturia inaequalis [1]) [%]	% Control Tomato Late Blight in a Preventive Test (Phytophthora infestans) [%]	% Control Wheat Rust in a Photostability Test [2] [%]	% Control of rice Helminthosporium in a seed treatment test (Helminthosporium oryzae) [%]	% Rhizoctonia solani control (Rhizoctonia solani) [%]	% Control Cucumber Powdery Mildew in a Residual Wash-Off Test (Erysiphe cichoracearum [3]) [%]	% Control Wheat Rust in a Residual Wash-off Test [4] [%]	% Control Wheat Rust in a Preventive Test [5] [%]	% Control Cucumber Powdery Mildew in a Preventive Test (Erysiphe cichoracearum [6]) [%]	% Control Apple Scab in a Photo-stability test (Venturia inaequalis [7]) [%]	% Control Cucumber Powdery Mildew in a Photostability Test (Erysiphe cichoracearum [8]) [%]	% Control Apple Scab in a Preventive Test (Venturia inaequalis [9]) [%]	mortality at 0.00025 % (two spotted mites) [%]	% Mortality (house fly adults) [%]
O=[N+]([O-])c1cc([N+](=O)[O-])c(N(Sc2nc3ccccc3s2)c2cc(C(F)(F)F)ccc2Cl)c(C(F)(F)F)c1 [N-[2-chloro-5-(trifluoromethyl)phenyl]-N-[2,4-dinitro-6-(trifluoromethyl)phenyl]-2-benzothiazolesulfenamide]	43	0	83	0	50	68	85	97	60	15	15	43		
O=[N+]([O-])c1cc([N+](=O)[O-])c(N(Sc2ncccc2[N+](=O)[O-])c2cc(C(F)(F)F)ccc2Cl)c(C(F)(F)F)c1 [N-[2-chloro-5-(trifluoromethyl)phenyl]-N-[2,4-dinitro-6-(trifluoromethyl)phenyl]-3-nitro-2-pyridinesulfenamide]	100	70	95	90	100	90	98	80	100	70	94	100	100	90
